Key:
[1] = system: EZH2 target genes (KRT17, FBXO32) in MDA-MB-231 cells; assay: Real-time RT-PCR cell based assay for up-regulation of H3K27me3 silenced genes
Excerpt: In order to monitor the reversal of epigenetic silencing associated with H3K27me3, a cell based assay was established using the breast-cancer cell line MDA-MB-231 for which EZH2 expression levels as well as EZH2 target genes have been characterised (17). For initial characterisation of compound activity two genes (KRT17, FBXO32) were selected which are primarily silenced by H3K27me3 in combination with H3K9me2/3 but are not DNA methylated. Furthermore, the DNA methylated gene (RUNX3) was selected to control for effects at loci that are silenced by H3K27me3 in combination with CpG island DNA methylation. The two enzymes which perform H3K27 methylation (EZH2) and demethylation (JMJD3) were also included. Cell death can lead to the down-regulation of EZH2 and up-regulation of JMJD3 in cells (36) and is therefore important to control for indirect effects due to cell death in such a cell-based assay.
In order to identify compounds which can mediate the reactivation of PRC2 silenced genes, MDA-MB-231 cells were treated for 48 h at a concentration of 10 μM of Example compounds 3 (HKMTi-1-005), 4 (HKMTi-1-022) or 5 (HKMTi-1-011), as well as with the comparative examples BIX-01294 or UNC0224, and mRNA levels of KRT17, FBXO32, RUNX3, as well as EZH2 and JMJD3 were measured by real-time RT-PCR. The data were normalised against the housekeeping gene GAPDH as well as RNA pol II (only results for GAPDH are shown, although consistent results were obtained with RNA pol II normalisation). […] The reported G9a/GLP specific inhibitors BIX01294 and UNC0224 have a very different activity profile on gene expression.
(§1) To characterise example compounds 3 (HKMTi-1-005), 4 (HKMTi-1-022) and 5 (HKMTi-1-011) further, MDA-MB-231 cells were treated for 48 h and 72 h at various concentrations (FIGS. 1d and e). […] At higher doses of compounds cell death started to occur, particularly at 72 h, which coincides with a dramatic drop in GAPDH levels. At these doses, expression of KRT17 was often below the detection limit of low-expressed genes due to cell death (indicated as “*” in FIGS. 1d and e). Independently synthesised batches of Example compounds 3 (HKMTi-1-005), 4 (HKMTi-1-022) and 5 (HKMTi-1-011) were prepared and assessed to ensure reproducibility of our results and indeed confirmed that those compounds could induce gene re-expression of KRT17 and FBXO32.
Cell culture and compound treatment: MDA-MB-231, T47D, MCF7, BT474, BT549 and SKBR3 breast cancer cell lines were cultured in DMEM-Medium supplemented with 10% FCS (#02.00.830, First Link (UK), 2 mM L-Glutamine (#25030-024, Invitrogen), 100 U/ml Penicillin and 100 μg/ml Streptavidin (#15070-063, Invitrogen) until they were ˜60% confluent and then treated for either 48 h or 72 h with a compound. Compounds were diluted in DMSO at Stocks of 10 mM. MCF-10a breast cell lines were cultured in DMEM/F12-Medium supplemented with 5% horse serum, EGF (20 ng/ml), Hydrocortizone ([…]), Cholera Toxin (100 ng/ml), Insulin (10 μg/ml) as well as 100 U/ml Penicillin and 100 μg/ml Streptavidin (#15070-063, Invitrogen). For MTT experiments, cells were either kept in DMEM/F12 growth medium or in normal DMEM-Medium to mimic the ‘normal’ non-dividing cell state.
Following compound treatment for 48 h (in 6-well plates), media was removed and 1.5 ml of TRIzol (#155966018, Invitrogen) was added directly to lyse cells. Once cells were lysed, the protocol was continued with 1 ml (TRIzol, cell lysate) according to the manufactures instructions. Purified RNA was dissolved in 35 μl of UltraPure DNase/RNase-free distilled water (#10977049, Invitrogen). Reverse transcription was done using the SuperScript III First-Strand Synthesis System (#18080-051, Invitrogen) according to the manufactures instructions, using 7 μl of the purified RNA as starting material. For real-time measurements the 2×iQ SYBR Green Supermix (#170-8882, Bio-Rad), 200 nM Primers and 0.4 μl of cDNA/per 20 μl reaction was used. […]

[2] = system: histone marks at KRT17 and FBXO32 promoter region in MDA-MB-231 cells; assay: Chromatin Immunoprecipitation (ChIP) at KRT17 and FBXO32 promoter; type: cell-based; conditions: MDA-MB-231, 5 μM, 72 h
Protocol: The fold difference to the untreated sample is shown. Each IP-value has been determined as the relative increase to the no-antibody control and then normalised to GAPDH levels.
(§2) Chromatin Immunoprecipitation (ChIP) experiments were carried out on treated MDA-MB-231 cells to verify that the detected gene up-regulation is indeed due to chromatin remodelling (FIG. 2). For this, typical silencing marks such as H3K9me3 and H3K27me3 were tested as well as activating marks such as H3K4me3, H3K27ac and H3K9ac. […] It should be noted that greater than 50% cell death is observed for compound 5 (HKMTi-1-011) at this concentration, but not for the others, and the changes observed in histone marks for compound 5 (HKMT-1-011) may reflect ongoing cell death.
ChIP was accomplished using Dynabeads Protein A (Invitrogen #100-01D.) according to (41), except that following the Chelex-DNA purification an additional purification with QIAquick PCR Purification Kit (#28106, Qiagen) was carried out, here the ChIP-products were eluted in 50 μl and for subsequent real-time measurements (as described above) 1.5 μl per reaction was used. The list of Primers can be found in FIG. 7 (Supplementary Table 2).

[3] = system: EZH2 target genes in MDA MB-231 cells; assay: Agilent two-colour gene expression microarrays, enrichment of EZH2 target genes; type: cell-based; conditions: MDA MB-231, 10 μM
Protocol: Agilent two-colour microarrays were used to profile gene expression changes induced 24 h and 48 h after 10 μM treatment with example compound 3 (HKMTi-1-005) compared to compound HKMTi-1-012. […] Many of these EZH2 target genes are clearly differentially expressed following treatment with example compound 3 (HKMTi-1-005) compared to compound HKMTi-1-012, as shown in Table 2 in FIG. 5. Statistical enrichment of EZH2-target genes (Lee et al 2011) in the lists of differentially expressed genes was evaluated using the hypergeometric distribution. Example compound 3 (HKMTi-1-005) results in significant upregulation (p=3.3^−33 at 24 h and p=3.2^−21 at 48 h) and significant down-regulation (p=3.5^−37 at 24 h and p=3.8^−61 at 48 h) of EZH2 target genes. […]
Normalised log 2 gene expression ratios were analysed using LIMMA (Smyth 2004) to obtain empirical Bayes moderated t-statistics reflecting statistical significance of differential expression across the 4 replicates for each drug, time combination. […]
Statistical significance of overlap between these lists of EZH2 targets and the genes differentially expressed upon drug treatment in our microarray study was assessed using the hypergeometric distribution.

[4] = reported; cited from earlier work
[5] = system: MDA-MB-231 cells; assay: Cell death of treated MDA-MB-231 cells; type: cell-based; conditions: MDA-MB-231, concentration of the ChIP experiment (5 μM, 72 h)
Protocol: as §1
as §2, with “death. […]” for “death.”

[6] = MDA-MB-231, 10 μM, 48 h, normalised to GAPDH
[7] = MDA-MB-231, various concentrations, 48 h and 72 h

Compound: COc1cc2nc(N3CCN(C)CC3)nc(NC3CCN(Cc4ccccc4)CC3)c2cc1OC [HKMTi-1-005]
- FBXO32 RNA levels [1, 6]: up-regulate
- KRT17 RNA levels [1, 6]: up-regulate
- RUNX3 expression [1, 6]: not effecting
- FBXO32 mRNA level [1, 7]: dose-dependent increase
- JMJD3 mRNA level [1, 7]: dose-dependent increase
- KRT17 mRNA level [1, 7]: dose-dependent increase
- permissive chromatin marks (H3K4me3, H3K4me2, H3K9ac, H3K27ac) [2]: increase in most permissive marks
- repressive chromatin marks (H3K27me3, H3K9me3) at KRT17 and FBXO32 [2]: clear decrease
- functional enrichment of changed pathways (DAVID) [3]: upregulation of apoptosis genes and the lysosome pathway, and a downregulation of a number of processes related to cell cycle & cell division

Compound: COc1cc2nc(N3CCCN(C)CC3)nc(NC3CCN(Cc4ccccc4)CC3)c2cc1OC [BIX-01294, reference compound]
- FBXO32 RNA levels [1, 6]: does up-regulate
- KRT17 RNA levels [1, 6]: does not up-regulate
- separation of functional potency and cell toxicity [4]: poor separation of functional potency and cell toxicity

Compound: Nc1nccc2c1ncn2C1C=C(CO)C(O)C1O (stereo not drawn) [DZNep, reference compound]
- EZH2 mRNA level [1, 7]: unaffected
- FBXO32 mRNA level [1, 7]: unaffected
- JMJD3 mRNA level [1, 7]: unaffected
- KRT17 mRNA level [1, 7]: consistently up-regulated
- RUNX3 expression [1, 7]: increased under certain conditions although not in a dose dependent manner

Compound: COc1cc2nc(N3CCN(c4ccccn4)CC3)nc(NC3CCN(Cc4ccccc4)CC3)c2cc1OC [HKMTi-1-011]
- FBXO32 RNA levels [1, 6]: up-regulate
- KRT17 RNA levels [1, 6]: up-regulate
- RUNX3 expression [1, 6]: not effecting
- FBXO32 mRNA level [1, 7]: increase in a dose dependent manner
- JMJD3 mRNA level [1, 7]: increase in a dose dependent manner
- KRT17 mRNA level [1, 7]: increase in a dose dependent manner
- permissive chromatin marks (H3K4me3, H3K4me2, H3K9ac, H3K27ac) [2]: increase in most permissive marks
- repressive chromatin marks (H3K27me3, H3K9me3) at KRT17 and FBXO32 [2]: clear decrease
- cell death [5]: greater than 50%

Compound: COc1cc2c(NC3CCN(C)CC3)nc(N3CCCN(C)CC3)nc2cc1OCCCN(C)C [UNC0224, reference compound]
- FBXO32 RNA levels [1, 6]: very little effect
- KRT17 RNA levels [1, 6]: very little effect
- gene expression profile in the cell assay (KRT17, FBXO32, RUNX3) ([1]; MDA-MB-231, 10 μM, compared with example compounds 3, 4 and 5): very little effect

Compound: COc1cc2nc(N3CCCCC3)nc(NC3CCN(Cc4ccccc4)CC3)c2cc1OC [HKMTi-1-022]
- FBXO32 RNA levels [1, 6]: up-regulate
- KRT17 RNA levels [1, 6]: up-regulate
- RUNX3 expression [1, 6]: not effecting
- FBXO32 mRNA level [1, 7]: increase in a dose dependent manner
- JMJD3 mRNA level [1, 7]: increase in a dose dependent manner
- KRT17 mRNA level [1, 7]: increase in a dose dependent manner
- JMJD3 binding [2]: increase
- permissive chromatin marks (H3K4me3, H3K4me2, H3K9ac, H3K27ac) [2]: increase of the activating marks H3K4me3, H3K27ac and H3K9ac
- repressive chromatin marks (H3K27me3, H3K9me3) at KRT17 and FBXO32 [2]: clear decrease
- permissive chromatin marks (H3K4me3, H3K4me2, H3K9ac, H3K27ac) ([2]; listed as HKMT-1-022): concomitant increase in all permissive chromatin marks examined

— patent publication US9932317B2, “Quinazoline compounds and their use in therapy” (Imperial Innovations Limited, priority 2012, dated 2018)
